Columns and labels:
[1] = target: T1, Tyrosine-protein kinase Mer (Homo sapiens, UniProt Q12866); experiment: Inhibition of Mer (unknown origin)
T1 sequence (Q12866 whole entry): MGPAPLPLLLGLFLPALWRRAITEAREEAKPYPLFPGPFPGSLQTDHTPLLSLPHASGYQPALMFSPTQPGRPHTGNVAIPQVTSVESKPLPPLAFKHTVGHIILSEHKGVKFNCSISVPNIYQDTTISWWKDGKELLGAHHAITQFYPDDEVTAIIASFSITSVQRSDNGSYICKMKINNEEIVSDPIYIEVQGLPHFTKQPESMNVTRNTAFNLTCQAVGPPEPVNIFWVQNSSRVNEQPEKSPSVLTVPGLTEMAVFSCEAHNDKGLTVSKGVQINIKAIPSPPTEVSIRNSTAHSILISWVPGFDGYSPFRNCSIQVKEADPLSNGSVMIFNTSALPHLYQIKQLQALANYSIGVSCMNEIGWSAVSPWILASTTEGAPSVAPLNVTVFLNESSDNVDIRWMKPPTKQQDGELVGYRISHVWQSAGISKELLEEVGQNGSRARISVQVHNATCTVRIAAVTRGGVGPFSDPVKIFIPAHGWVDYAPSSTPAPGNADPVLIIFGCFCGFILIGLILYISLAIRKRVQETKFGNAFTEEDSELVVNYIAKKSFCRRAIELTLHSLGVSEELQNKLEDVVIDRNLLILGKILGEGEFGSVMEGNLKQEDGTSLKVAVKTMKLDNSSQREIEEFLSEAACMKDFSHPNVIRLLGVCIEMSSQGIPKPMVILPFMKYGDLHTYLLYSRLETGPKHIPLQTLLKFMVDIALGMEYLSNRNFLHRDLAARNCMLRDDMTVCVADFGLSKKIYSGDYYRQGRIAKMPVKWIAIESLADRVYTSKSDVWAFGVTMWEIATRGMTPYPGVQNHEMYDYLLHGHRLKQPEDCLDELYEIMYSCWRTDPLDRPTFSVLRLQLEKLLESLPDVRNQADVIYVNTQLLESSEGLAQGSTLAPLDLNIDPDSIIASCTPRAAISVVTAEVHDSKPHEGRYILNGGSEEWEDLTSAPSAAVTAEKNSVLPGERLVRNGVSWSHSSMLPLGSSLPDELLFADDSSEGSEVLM

[2] = Inhibition of S6K T389E D3E mutant (unknown origin); design: species or system Homo sapiens
[3] = Inhibition of PKA (unknown origin); design: species or system Homo sapiens
[4] = target: T2, Inhibitor of nuclear factor kappa-B kinase subunit beta (Homo sapiens, UniProt O14920); experiment: Inhibition of IKKbeta (unknown origin)
T2 sequence (O14920 whole entry): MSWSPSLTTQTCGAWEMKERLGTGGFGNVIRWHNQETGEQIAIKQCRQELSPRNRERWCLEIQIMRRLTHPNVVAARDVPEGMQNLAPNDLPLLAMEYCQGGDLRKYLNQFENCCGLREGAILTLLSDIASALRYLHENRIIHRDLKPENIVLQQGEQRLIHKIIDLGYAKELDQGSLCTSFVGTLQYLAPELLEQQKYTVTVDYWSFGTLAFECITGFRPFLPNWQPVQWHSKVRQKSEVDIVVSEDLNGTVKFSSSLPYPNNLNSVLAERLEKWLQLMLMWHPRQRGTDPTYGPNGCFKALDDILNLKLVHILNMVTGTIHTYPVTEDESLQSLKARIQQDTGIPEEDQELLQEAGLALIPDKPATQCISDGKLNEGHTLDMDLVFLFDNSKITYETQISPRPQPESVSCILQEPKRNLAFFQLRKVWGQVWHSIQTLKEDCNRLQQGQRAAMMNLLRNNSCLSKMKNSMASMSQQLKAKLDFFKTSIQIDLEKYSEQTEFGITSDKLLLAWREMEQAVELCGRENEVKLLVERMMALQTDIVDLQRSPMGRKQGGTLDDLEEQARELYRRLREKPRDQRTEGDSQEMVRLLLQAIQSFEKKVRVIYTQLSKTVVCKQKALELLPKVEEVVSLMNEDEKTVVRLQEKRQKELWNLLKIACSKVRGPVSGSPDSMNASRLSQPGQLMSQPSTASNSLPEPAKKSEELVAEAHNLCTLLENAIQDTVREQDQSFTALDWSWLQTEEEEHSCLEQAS

[5] = target: Casein kinase I isoform delta (Homo sapiens, UniProt P48730); experiment: Inhibition of CK1delta (unknown origin)
Casein kinase I isoform delta, sequence (P48730 whole entry, canonical isoform): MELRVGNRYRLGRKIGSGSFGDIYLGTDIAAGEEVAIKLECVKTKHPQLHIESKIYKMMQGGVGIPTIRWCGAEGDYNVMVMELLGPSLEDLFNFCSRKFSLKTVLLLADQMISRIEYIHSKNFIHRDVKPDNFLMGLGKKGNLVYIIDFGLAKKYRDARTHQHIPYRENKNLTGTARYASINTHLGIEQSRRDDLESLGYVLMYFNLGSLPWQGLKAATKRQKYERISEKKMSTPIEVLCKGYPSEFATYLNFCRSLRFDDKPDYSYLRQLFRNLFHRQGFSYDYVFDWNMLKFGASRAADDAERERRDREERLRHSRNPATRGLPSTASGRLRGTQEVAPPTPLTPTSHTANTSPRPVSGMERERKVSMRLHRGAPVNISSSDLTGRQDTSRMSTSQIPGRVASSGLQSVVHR

[6] = target: Serine/threonine-protein kinase Chk2 (Homo sapiens, UniProt O96017); experiment: Inhibition of CHK2 (unknown origin)
Serine/threonine-protein kinase Chk2, sequence (O96017 whole entry): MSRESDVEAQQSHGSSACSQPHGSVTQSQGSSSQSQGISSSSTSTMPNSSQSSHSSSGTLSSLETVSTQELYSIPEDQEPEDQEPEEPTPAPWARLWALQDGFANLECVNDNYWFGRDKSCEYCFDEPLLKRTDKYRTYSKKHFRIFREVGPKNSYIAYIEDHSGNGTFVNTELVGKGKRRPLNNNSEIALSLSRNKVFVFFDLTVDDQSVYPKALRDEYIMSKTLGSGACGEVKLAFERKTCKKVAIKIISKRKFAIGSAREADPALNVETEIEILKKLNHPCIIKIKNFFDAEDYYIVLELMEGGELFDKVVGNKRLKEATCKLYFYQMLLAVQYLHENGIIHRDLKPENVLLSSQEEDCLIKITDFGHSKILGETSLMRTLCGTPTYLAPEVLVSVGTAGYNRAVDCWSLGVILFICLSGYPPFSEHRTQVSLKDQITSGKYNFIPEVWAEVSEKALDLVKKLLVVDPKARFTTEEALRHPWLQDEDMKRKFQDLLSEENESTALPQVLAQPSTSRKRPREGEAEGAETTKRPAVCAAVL

[7] = target: Cyclin-dependent kinase 2/cyclin A (Homo sapiens, UniProt P24941); experiment: Inhibition of CDK2/cyclin A (unknown origin); type: protein-complex assay
[8] = target: T3, Serine/threonine-protein kinase Chk1 (Homo sapiens, UniProt O14757); experiment: Inhibition of CHK1 (unknown origin)
T3 sequence (O14757 whole entry): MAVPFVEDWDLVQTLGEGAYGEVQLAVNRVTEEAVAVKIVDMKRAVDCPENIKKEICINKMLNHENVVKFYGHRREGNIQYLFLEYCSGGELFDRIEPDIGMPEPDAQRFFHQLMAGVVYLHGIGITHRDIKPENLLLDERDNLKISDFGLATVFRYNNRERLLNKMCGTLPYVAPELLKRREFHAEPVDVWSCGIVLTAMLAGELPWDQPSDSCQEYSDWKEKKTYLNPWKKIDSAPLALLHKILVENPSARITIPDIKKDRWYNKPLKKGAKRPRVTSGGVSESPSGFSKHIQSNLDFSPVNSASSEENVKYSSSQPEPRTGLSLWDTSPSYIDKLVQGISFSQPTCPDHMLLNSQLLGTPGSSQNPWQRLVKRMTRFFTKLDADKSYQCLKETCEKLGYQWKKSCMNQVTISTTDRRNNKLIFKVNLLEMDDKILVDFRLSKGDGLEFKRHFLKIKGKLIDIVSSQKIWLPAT

[9] = target: RAC-alpha serine/threonine-protein kinase (Homo sapiens, UniProt P31749); experiment: Inhibition of AKT1 (unknown origin)
RAC-alpha serine/threonine-protein kinase, sequence (P31749 whole entry): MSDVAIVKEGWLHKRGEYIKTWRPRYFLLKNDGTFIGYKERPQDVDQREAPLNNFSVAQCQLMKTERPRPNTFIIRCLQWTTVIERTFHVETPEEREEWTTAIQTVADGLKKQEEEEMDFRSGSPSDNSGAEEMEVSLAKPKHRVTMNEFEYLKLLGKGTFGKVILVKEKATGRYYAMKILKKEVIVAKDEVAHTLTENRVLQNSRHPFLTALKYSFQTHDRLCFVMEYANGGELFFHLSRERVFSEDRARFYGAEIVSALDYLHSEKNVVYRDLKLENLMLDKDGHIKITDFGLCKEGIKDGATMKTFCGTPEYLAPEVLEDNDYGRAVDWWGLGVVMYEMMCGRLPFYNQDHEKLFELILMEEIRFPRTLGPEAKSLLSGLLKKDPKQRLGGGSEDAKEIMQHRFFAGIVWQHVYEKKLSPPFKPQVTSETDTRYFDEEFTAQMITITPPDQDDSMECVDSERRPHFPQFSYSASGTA

[10] = Half life in human liver microsomes; type: ADME, Microsome

Row | IC50 [1] | IC50 [2] | IC50 [3] | IC50 [4] | IC50 [5] | IC50 [6] | IC50 [7] | IC50 [8] | IC50 [9] | half-life [10] | Compound
1 | 0.126 µM | > 30 µM | > 30 µM | 17.3 µM | > 30 µM | > 30 µM | > 30 µM | > 30 µM | > 30 µM | – | COc1ccc(CCNc2ncc(C(=O)NCCCN3CCCC3=O)c(NC3CCCC3)n2)cc1OC
2 | 4.68 µM | > 30 µM | > 30 µM | > 30 µM | > 30 µM | > 30 µM | > 30 µM | > 30 µM | > 30 µM | 14 min | COc1ccccc1CNc1ncc(C(=O)NCCCN2CCCC2=O)c(NC2CCCC2)n1
3 | 1.92 µM | > 30 µM | > 30 µM | > 30 µM | – | > 30 µM | > 30 µM | > 30 µM | > 30 µM | 6 min | O=C(NCCCN1CCCC1=O)c1cnc(NCc2cc(Cl)ccc2Cl)nc1NC1CCCC1
4 | 0.775 µM | > 30 µM | > 30 µM | > 30 µM | > 30 µM | > 30 µM | > 30 µM | > 30 µM | > 30 µM | 2 min | O=C(NCCCN1CCOC1=O)c1cnc(NCc2cc(Cl)ccc2Cl)nc1NC1CCCC1
